Data reported in article PMC3726930, “Synthesis and Biological Activity of N-Sulfonyltripeptides with C-Terminal Arginine as Potential Serine Proteases Inhibitors” (International Journal of Peptide Research and Therapeutics, 2012).
Like-named read-outs stand apart in the source and are kept apart here. Where a SMILES comes first, the peptide text is derived from it. Where no end group is shown, it is not given here. [ ]: non-standard residue; d: D form. The star is where a group is joined. Nva = CCC[C@H](N)C(=O)O; Ms = CS(=O)(=O)*; CH2Cl = ClC*

Key:
[1] = biological target: T1, urokinase (Homo sapiens, UniProt P00749); assay: Amidolytic activity of urokinase, substrate S-2444; type: biochemical; details: Ki calculated from IC50 by Cheng-Prusoff; triplicate; n.i. = no effect at maximum concentration 20 mM; read-out: Ki ± SD Urokinase S-2444
Description: Determination of amidolytic activity was performed as previously described (Okada et al. [1988]). The detailed description of the method is given below. The buffer and the enzyme solution included: • tris buffer—0.6 ml (pH 8.8),
enzyme: urokinase (50 U/ml),
synthetic substrate: S-2444 (0.1 ml, 3 mM); • (b) tris buffer—0.5 ml (pH 8.4),
(§1) Buffer and 0.1 ml of enzyme solution was added to 0.2 ml of examined compound dissolved in 0.15 M NaCl (1–17) (as control 0.15 M NaCl). The mixture was incubated for 3 min at 37 °C, then the synthetic substrate was added. After 20 min of incubation, the reaction was stopped by adding 0.1 ml of 50 % acetic acid, and the absorbance of the released p-nitroaniline was measured at 405 nm (Spekol 1300, AnalyticJena). Every value represents the average of the triplicate determination. IC50 value was considered as the concentration of the inhibitor, which decreased the absorbance at 405 nm by 50 %, compared with the absorbance measured under the same conditions without the inhibitor. Ki was calculated from IC50 based on Cheng–Prusoff equation (Cheng and Prusoff [1973]).

[2] = biological target: thrombin (Bos taurus, UniProt P00735); assay: Amidolytic activity of thrombin, substrate S-2238; type: biochemical; details: Ki calculated from IC50 by Cheng-Prusoff, n.i. = no effect at maximum concentration 20 mM, read-out: Ki ± SD Thrombin
Description: (§2) Determination of amidolytic activity was performed as previously described (Okada et al. [1988]). The detailed description of the method is given below. The buffer and the enzyme solution included: • tris buffer—0.6 ml (pH 8.8), […]
as §1, with “synthetic substrate: S-2444 (0.1 ml, 3 mM); • (b) tris buffer—0.5 ml (pH 8.4), enzyme: thrombin (1 U/ml), synthetic substrate: S-2238 (0.2 ml, 0.75 mM); • (c) tris buffer—0.5 ml (pH 7.4), Buffer” for “Buffer”

[3] = tested on: MDA-MB-231 cells; details: 24 h
[4] = tested on: DLD cells; details: 24 h
[5] = biological target: T2, plasmin (Homo sapiens, UniProt P00747); assay: Amidolytic activity of plasmin, substrate S-2251; type: biochemical; details: Ki calculated from IC50 by Cheng-Prusoff; triplicate; read-out: Ki ± SD Plasmin S-2251
T2 construct: converts the pro-enzyme plasminogen into its active form plasmin; purchased Chromogenix (Milano, Italy)
Description: as §2
as §1, with “synthetic substrate: S-2238 (0.2 ml, 0.75 mM); • (c) tris buffer—0.5 ml (pH 7.4), enzyme: plasmin (0.4 U/ml), synthetic substrate: S-2251 (0.2 ml, 3 mM); • (d) […] buffer—0.5 ml (pH 7.5), Buffer” for “Buffer”

[6] = biological target: T1, urokinase; assay: Urokinase inhibition, literature or earlier data; type: biochemical; details: author's unpublished data, corresponding to earlier IC50 values
[7] = biological target: T1, urokinase; details: cited from earlier work
[8] = ref Markowska et al. [2008], read-out: IC50 urokinase

T2 sequence (P00747 581-810 limits assumed): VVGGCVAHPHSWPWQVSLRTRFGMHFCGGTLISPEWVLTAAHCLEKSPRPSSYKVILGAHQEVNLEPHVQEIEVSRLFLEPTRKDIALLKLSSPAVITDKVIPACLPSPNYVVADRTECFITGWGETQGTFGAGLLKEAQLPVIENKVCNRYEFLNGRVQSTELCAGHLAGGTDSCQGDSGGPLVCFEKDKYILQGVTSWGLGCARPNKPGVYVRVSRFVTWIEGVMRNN
T2 sequence (P00747 97-580 partner limits assumed): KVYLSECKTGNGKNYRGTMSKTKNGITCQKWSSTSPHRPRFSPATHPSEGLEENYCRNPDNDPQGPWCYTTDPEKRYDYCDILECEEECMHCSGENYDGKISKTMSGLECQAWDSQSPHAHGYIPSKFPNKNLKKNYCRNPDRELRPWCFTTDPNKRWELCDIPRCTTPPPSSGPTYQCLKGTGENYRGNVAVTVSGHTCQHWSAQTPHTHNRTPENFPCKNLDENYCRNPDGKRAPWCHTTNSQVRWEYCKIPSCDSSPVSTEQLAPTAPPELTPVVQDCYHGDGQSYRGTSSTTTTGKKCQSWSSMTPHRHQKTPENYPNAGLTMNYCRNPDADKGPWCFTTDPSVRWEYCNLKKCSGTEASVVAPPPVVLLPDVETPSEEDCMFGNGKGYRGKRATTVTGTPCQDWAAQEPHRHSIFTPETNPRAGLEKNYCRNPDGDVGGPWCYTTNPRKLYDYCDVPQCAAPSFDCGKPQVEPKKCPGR

Compound | Ki [1] [µM] | Ki [2] [µM] | IC50 [3] [µM] | IC50 [4] [µM] | Ki [5] [µM] | also measured
C[C@H](NC(=O)[C@@H](CO)NS(=O)(=O)Cc1ccccc1)C(=O)N[C@@H](CCCNC(=N)N)C(=O)NCCCCCN [Compound 1, PhCH2SO2-D-Ser-Ala-Arg-NH-(CH2)5-NH2] | > 20000 | > 20000 | 480 | 460 | 2 ± 0.16 | 
C[C@H](NC(=O)[C@H](N)CO)C(=O)N[C@@H](CCCNC(=N)N)C(=O)O [H-D-Ser-Ala-Arg-OH] (H-[dS]-Ala-Arg-OH) |  |  |  |  |  | Ki [6]: 180 µM; IC50 [7, 8]: 2000 µM
phenethylsulfonyl-D-Ser-Ala-Arg-H |  |  |  |  |  | IC50 ([7]; ref Tamura et al. [2000], read-out: IC50 uPA): 0.0031 µM
C[C@H](NC(=O)[C@@H](CO)NS(C)(=O)=O)C(=O)N[C@@H](CCCNC(=N)N)C(=O)NCCCCCN [Compound 3, CH3PhSO2-D-Ser-Ala-Arg-NH-(CH2)5-NH2] |  |  | 570 | 390 |  | 
N=C(N)NCCC[C@H](NC(=O)CNC(=O)[C@H](N)CO)C(=O)O [H-D-Ser-Gly-Arg-OH] (H-[dS]-Gly-Arg-OH) |  |  |  |  |  | Ki [6]: 90 µM; IC50 [7, 8]: 1000 µM
CC(C)c1cc(C(C)C)c(S(=O)(=O)N[C@H](CO)C(=O)NCC(=O)N[C@@H](CCCNC(=N)N)C(=O)NCCCCCN)c(C(C)C)c1 [Compound 5, 2,4,6-TriiPrPhSO2-D-Ser-Gly-Arg-NH-(CH2)5-NH2] | 44.6 ± 3.57 | > 20000 | 510 | 150 | 56.4 ± 4.51 | 
H-D-Ser-Ala-Arg-NH-(CH2)5-NH2 |  |  |  |  |  | Ki ([7]; ref Markowska et al. [2010]): 6.3 µM
α-tolyl-SO2-D-Ser-Ala-Arg-OH |  |  |  |  |  | Ki ([7]; ref Markowska et al. [2010]): 24 µM
H-D-Ser-NVa-Arg-OH |  |  |  |  |  | Ki ([7]; ref Markowska et al. [2011]): 0.85 µM
Glu-Gly-Arg-CH2Cl |  |  |  |  |  | Ki ([7]; ref Lijnen et al. [1987]): 5 µM
CC(C)c1cc(C(C)C)c(S(=O)(=O)N[C@H](CO)C(=O)N[C@@H](C)C(=O)N[C@@H](CCCNC(=N)N)C(=O)NCCCCCN)c(C(C)C)c1 [Compound 2, 2,4,6-TriiPrPhSO2-D-Ser-Ala-Arg-NH-(CH2)5-NH2] | > 20000 | > 20000 | 480 | 390 | 90.9 ± 7.27 | 
N=C(N)NCCC[C@H](NC(=O)CNC(=O)[C@@H](CO)NS(=O)(=O)Cc1ccccc1)C(=O)NCCCCCN [Compound 4, PhCH2SO2-D-Ser-Gly-Arg-NH-(CH2)5-NH2] | > 20000 | > 20000 | 580 | 320 | 58.2 ± 4.65 | 

Further lines, with some results ahead:

Ki [1] [µM] | Ki [2] [µM] | IC50 [3] [µM] | IC50 [4] [µM] | Ki [5] [µM] | Compound | also measured
 |  | 590 | 220 |  | CCC[C@H](NC(=O)[C@@H](CO)NS(=O)(=O)c1c(C(C)C)cc(C(C)C)cc1C(C)C)C(=O)N[C@@H](CCCNC(=N)N)C(=O)O [Compound 14, 2,4,6-TriiPrPhSO2-D-Ser-NVa-Arg-OH] | 
> 20000 | > 20000 | 490 | 260 | 137 ± 11 | CCC[C@H](NC(=O)[C@H](N)CO)C(=O)N[C@@H](CCCNC(=N)N)C(=O)NCCCCCN [Compound 16, H-D-Ser-NVa-Arg-NH-(CH2)5-NH2] | 
> 20000 | 0.82 ± 0.06 | 650 | 180 | 13.6 ± 1.09 | CCC[C@H](NC(=O)[C@@H](CO)NS(=O)(=O)Cc1ccccc1)C(=O)N[C@@H](CCCNC(=N)N)C(=O)O [Compound 13, PhCH2SO2-D-Ser-NVa-Arg-OH] | 
 |  | 620 | 50 |  | CCC[C@H](NC(=O)[C@@H](CO)NS(C)(=O)=O)C(=O)N[C@@H](CCCNC(=N)N)C(=O)NCCCCCN [Compound 9, CH3PhSO2-D-Ser-NVa-Arg-NH-(CH2)5-NH2] | 
> 20000 | > 20000 | 680 | 340 | 112 ± 8.95 | CCC[C@H](NC(=O)[C@@H](CO)NS(=O)(=O)Cc1ccccc1)C(=O)N[C@@H](CCCNC(=N)N)C(=O)NCCCCCN [Compound 7, PhCH2SO2-D-Ser-NVa-Arg-NH-(CH2)5-NH2] | 
> 20000 | > 20000 | 660 | 330 | 52.7 ± 4.22 | CCC[C@H](NC(=O)[C@@H](CO)NS(=O)(=O)c1c(C(C)C)cc(C(C)C)cc1C(C)C)C(=O)N[C@@H](CCCNC(=N)N)C(=O)NCCCCCN [Compound 8, 2,4,6-TriiPrPhSO2-D-Ser-NVa-Arg-NH-(CH2)5-NH2] | 
> 20000 | > 20000 | 510 | 250 | 139 ± 11.1 | N=C(N)NCCC[C@H](NC(=O)CNC(=O)[C@H](N)CO)C(=O)NCCCCCN [Compound 17, H-D-Ser-Gly-Arg-NH-(CH2)5-NH2] | 
 |  | 450 | 260 |  | CS(=O)(=O)N[C@H](CO)C(=O)NCC(=O)N[C@@H](CCCNC(=N)N)C(=O)NCCCCCN [Compound 6, CH3PhSO2-D-Ser-Gly-Arg-NH-(CH2)5-NH2] | 
5.4 ± 0.43 | 0.97 ± 0.08 | 640 | 5 | 103 ± 8.22 | N=C(N)NCCC[C@H](NC(=O)CNC(=O)[C@@H](CO)NS(=O)(=O)Cc1ccccc1)C(=O)O [Compound 10, PhCH2SO2-D-Ser-Gly-Arg-OH] | 
15.8 ± 1.27 | > 20000 | 570 | 110 | 89.1 ± 7.13 | CC(C)c1cc(C(C)C)c(S(=O)(=O)N[C@H](CO)C(=O)NCC(=O)N[C@@H](CCCNC(=N)N)C(=O)O)c(C(C)C)c1 [Compound 11, 2,4,6-TriiPrPhSO2-D-Ser-Gly-Arg-OH] | 
> 20000 | > 20000 | 650 | 270 | 167 ± 13.4 | CCC[C@H](NC(=O)[C@@H](CO)NS(C)(=O)=O)C(=O)N[C@@H](CCCNC(=N)N)C(=O)O [Compound 15, CH3PhSO2-D-Ser-NVa-Arg-OH] (Ms-[dS]-[Nva]-Arg-OH; N-terminus and C-terminus assumed) | 
